For one assay, the target named is T1, α4β1 (VLA-4) (Homo sapiens, UniProt P05556+P13612).
T1 construct: the cells expressed the appropriate integrin receptor either endogenously (Jurkat/α4β1, K562/α5β1, Jurkat (a4-)/αLβ2, HSB/αLβ2); host or cells: Jurkat
As to the kind of experiment: Static cell adhesion assay, α4β1-mediated adhesion to VCAM-1. It is filed as cell-based. The conditions noted are these: Jurkat cells on sub-optimal VCAM-1 coating; PBS, 1 mM MgCl2, 50% FBS; read-out: Activity (EC50) in enhancing adhesion mediated by α4β1 (VLA-4). The protocol: (§1) For all assays described, C4 was dissolved in DMSO to make a 1 mM stock solution, and dilutions were made in assay buffer or media to yield the desired final working concentrations in 1% DMSO (vehicle). Human VCAM-1, MAdCAM-1 Fc chimera, ICAM-1, and SDF-1α were purchased from R&D Systems (Minneapolis, Minn.). Human serum fibronectin was purchased from Sigma-Aldrich (St. Louis, Mo.). The cell lines NK-92, Jurkat, K562, and HSB were obtained from American Type Culture Collection (Manassas, Va.) and were maintained in recommended culture media. The mutant Jurkat cell line not expressing α4 integrin (Jurkat [a4-]) was a gift from Dr. David Rose, University of California San Diego, La Jolla, Calif.
(§2) Ligands (VCAM-1, MAdCAM-1, fibronectin, or ICAM-1) in 50 μL of 50 mM Tris-HCl (pH 7.4), 150 mM NaCl, (TBS) were added to wells of a 96-well plate and allowed to coat overnight at 4° C. In order to maximize the window to evaluate agonist activity, a sub-optimal coating concentration of ligand was used. This ligand concentration corresponded approximately to that which would yield ≤5% adhesion as determined by dose-response curves of ligand binding to the appropriate cell type. All assays were performed as previously described. Briefly, 2×10^6 cells were labeled for 30 minutes with calcein-AM (Molecular Probes), washed, resuspended in binding buffer, and added to ligand-coated plates (2×10^5 cells/well) that had been blocked with 2% BSA. The binding buffer was PBS with 1 mM MgCl2 and 50% FBS (VCAM-1 and ICAM-1 assays) or TBS with 1 mM MnCl2 and 50% FBS (MAdCAM-1 and fibronectin assays). After a 30-minute incubation at 37° C., the plates were washed 3 times with the respective binding buffer (except without the serum), the adherent cells were lysed, and fluorescence was measured on a Tecan Safire^2 plate reader. Standard curves were run for each assay to convert fluorescence units to cell number. For each assay, the cells expressed the appropriate integrin receptor either endogenously (Jurkat/α4β1, K562/α5β1, Jurkat (a4-)/αLβ2, HSB/αLβ2) or in recombinant form (K562/α4β7). Generation of the recombinant K562 cell line has been described.

The next assay addresses T2, αLβ2 (LFA-1) (Homo sapiens, UniProt P05107+P20701).
T2 construct: the cells expressed the appropriate integrin receptor either endogenously (Jurkat/α4β1, K562/α5β1, Jurkat (a4-)/αLβ2, HSB/αLβ2); endogenous in cells; host or cells: Jurkat (α4-) or HSB
As to the kind of experiment: Static cell adhesion assay, αLβ2-mediated adhesion to ICAM-1. The class given is cell-based. The conditions noted are these: Jurkat (a4-) or HSB cells on sub-optimal ICAM-1 coating; PBS, 1 mM MgCl2, 50% FBS; read-out: Activity (EC50) in enhancing adhesion mediated by αLβ2 (LFA-1). The procedure: as §1, §2

The subject of the next assay is B16-BL6 melanoma. As to the kind of experiment: Checkpoint blockade B16-BL6 melanoma model. It is filed as in vivo, C57BL/6 mice. The following applies: C4 intratumorally 1 mg/kg twice weekly for 30 days from day 11. The protocol:
C4 was tested in a B16-BL6 melanoma model to determine potential effects on the current checkpoint blockade therapy anti-CTLA-4. Briefly, thirty C57BL/6 were randomized into 3 groups (n=10). C4 was added to a regimen of GVAX®/anti-CTLA-4. Historically, these treatment regimens result in at best, a 20% tumor free survival. On day 0, B16-BL6 cells (2.5×10^4) were injected subcutaneously. GVAX®/anti-CTLA-4 (clone 9H10), or IgG controls, were administered on days 3, 6, and 9. On day 11, C4 treatment was initiated intratumorally twice weekly (1 mg/kg) for 30 days. Vehicle control was added to the IgG group.
The B16-BL6 therapeutic melanoma model is well described. Briefly, B16-BL6 cells (>90% viability) were be resuspended at 2.5×10^5 cells/ml in HBSS (4° C.). At day 0 (d0), C57BL/6 mice (4-6 wk old, female) were inoculated (subcutaneous, flank) with 2.5×10^4 cells (100 μL). At d3, appropriate groups received B16-GM-CSF vaccine (GVAX®). GVAX® preparation followed established procedures. Log-phase growth B16-GM-CSF cells were harvested as described above for B16-BL6 cells, but resuspended at 1×10^7 cells in HBSS (4° C.). Cells were irradiated (5000 rad) and injected into contralateral flanks (100 μL, […]). Also at d3, all animals received anti-CTLA-4 (mAb 9H10, BioXcell, 200 μg/animal, twice weekly). […] Animals were monitored daily for distress and survival was assessed twice daily. […]

For the next assay, the system named is K562 tumor target cells. As to the kind of experiment: NK cytotoxicity testing (NK cell cytolysis of tumor target cells). The class given is cell-based, human. The protocol: FIG. 1 depicts C4 enhancement of natural killer cell cytolysis of tumor target cells. Freshly isolated CD56+ natural killer cells were isolated from the peripheral blood of a healthy volunteer. Cells were either incubated with vehicle control (DMSO), or indicated concentrations of C4 for 4 h in the presence of tumor target cells (the erythroleukemic cell line K562). Data is presented as a percent increase in tumor cell killing.
FIG. 2 depicts the natural killer cell line NK-92, which was used at different effector to target ratios in the presence or absence of C4 (100 μM). Specific lysis of K562 cells is shown. All data are from triplicate determinations, and graphed as the mean+SD. […]
Human NK cells were purified from leukoreduction filters obtained from healthy volunteers using a CD56+ magnetic bead based enrichment column from Multenyi Biotech (as per manufacturer's instructions). Purified cells were routinely >90% CD56+ positive as measured by flow cytometry. […] After a 4 h incubation at 37° C., 5% CO2, culture supernatants were removed and liberated TDA (2,2′:6′,2″-terpyridine-6,6″-dicarboxylic acid) was detected by addition of DELFIA solution to form EuTDA, and fluorescence was measured on a Tecan Safire 2 multimodal plate reader. […] Results are expressed as the percent specific lysis, calculated as [(experimental signal−spontaneous release)/(total signal−spontaneous release).

For another assay, the system named is Jurkat (a4-) cells. As to the kind of experiment: SDF-1α mediated migration assay across ICAM-1 coated membranes. The class given is cell-based. The conditions noted are these: 4-hour incubation, *p<0.05 (FIG. 3A&B). The procedure: (§3) FIGS. 3A&B depicts activity of C4 in enhancing SDF-1α mediated migration of Jurkat T cell, an exemplary activated T-cell, across membranes coated with either VCAM-1 or ICAM-1 (*p<0.05).
(§4) Migration assays were performed in […] pore size Transwells (24 well, Costar, Cambridge, Mass.). The upper chambers were pre-coated with […] VCAM-1 or 1 μg/mL ICAM-1 in […] TBS overnight at 4° C. and were then blocked with 2% BSA for 1 hour at room temperature. After washing with migration medium (RPMI-1640 supplemented with 1% FBS, 100 units/mL penicillin and 100 μg/mL streptomycin), upper chambers were loaded with 2×10^5 cells Jurkat cells (VCAM-1 assays) or Jurkat (a4-) cells (ICAM-1 assays) in 160 μL of migration medium. Lower chambers contained 600 μL of migration medium supplemented with 5 µg/mL (VCAM-1 assays) or 1 μg/mL (ICAM-1 assays) SDF-1α to induce chemotaxis. Jurkat cells were mixed with vehicle (1% DMSO) or C4 at the indicated concentrations immediately prior to being added to the upper chamber. After a 4-hour incubation at 37° C., 5% CO2, the upper chambers were removed, and cells in the lower chamber were collected and counted on a hemocytometer. Results are expressed as the total number of cells migrated.

Another assay concerns Jurkat cells. As to the kind of experiment: SDF-1α mediated migration assay across VCAM-1 coated membranes. It is filed as cell-based. The conditions noted are these: 4-hour incubation; *p<0.05 (FIG. 3A&B). The procedure: as §3, §4

T2 sequence (P20701 26-1170): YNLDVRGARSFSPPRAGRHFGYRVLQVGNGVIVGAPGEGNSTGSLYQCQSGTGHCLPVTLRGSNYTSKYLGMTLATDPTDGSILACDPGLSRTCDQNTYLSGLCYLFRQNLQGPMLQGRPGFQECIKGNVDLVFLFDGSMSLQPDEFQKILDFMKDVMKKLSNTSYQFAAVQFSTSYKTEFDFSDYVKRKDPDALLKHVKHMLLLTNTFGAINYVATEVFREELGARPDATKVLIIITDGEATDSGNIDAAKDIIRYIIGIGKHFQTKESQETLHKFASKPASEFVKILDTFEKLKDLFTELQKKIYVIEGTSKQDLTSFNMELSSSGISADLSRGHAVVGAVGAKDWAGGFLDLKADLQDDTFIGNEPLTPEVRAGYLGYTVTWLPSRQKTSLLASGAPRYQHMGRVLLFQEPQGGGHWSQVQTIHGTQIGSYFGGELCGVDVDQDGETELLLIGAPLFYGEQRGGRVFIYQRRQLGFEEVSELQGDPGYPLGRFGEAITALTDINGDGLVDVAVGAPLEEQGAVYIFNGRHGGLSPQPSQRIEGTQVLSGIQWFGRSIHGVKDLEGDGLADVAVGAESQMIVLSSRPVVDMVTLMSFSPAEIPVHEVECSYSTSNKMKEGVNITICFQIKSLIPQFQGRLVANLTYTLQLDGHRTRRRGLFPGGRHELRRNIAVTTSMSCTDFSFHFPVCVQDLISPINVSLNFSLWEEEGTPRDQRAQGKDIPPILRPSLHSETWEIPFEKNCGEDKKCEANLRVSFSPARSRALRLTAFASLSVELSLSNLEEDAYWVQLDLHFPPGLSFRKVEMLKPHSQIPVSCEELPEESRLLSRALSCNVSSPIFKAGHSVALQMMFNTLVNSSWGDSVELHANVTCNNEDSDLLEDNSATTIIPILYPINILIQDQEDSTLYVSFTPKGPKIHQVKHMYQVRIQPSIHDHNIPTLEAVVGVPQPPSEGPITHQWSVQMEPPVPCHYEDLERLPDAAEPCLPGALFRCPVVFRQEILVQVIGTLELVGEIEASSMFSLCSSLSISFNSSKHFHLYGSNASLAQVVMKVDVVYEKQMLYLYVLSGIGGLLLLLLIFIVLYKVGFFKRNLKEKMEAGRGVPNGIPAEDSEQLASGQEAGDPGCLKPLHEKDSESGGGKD
T2 sequence (P05107 23-769): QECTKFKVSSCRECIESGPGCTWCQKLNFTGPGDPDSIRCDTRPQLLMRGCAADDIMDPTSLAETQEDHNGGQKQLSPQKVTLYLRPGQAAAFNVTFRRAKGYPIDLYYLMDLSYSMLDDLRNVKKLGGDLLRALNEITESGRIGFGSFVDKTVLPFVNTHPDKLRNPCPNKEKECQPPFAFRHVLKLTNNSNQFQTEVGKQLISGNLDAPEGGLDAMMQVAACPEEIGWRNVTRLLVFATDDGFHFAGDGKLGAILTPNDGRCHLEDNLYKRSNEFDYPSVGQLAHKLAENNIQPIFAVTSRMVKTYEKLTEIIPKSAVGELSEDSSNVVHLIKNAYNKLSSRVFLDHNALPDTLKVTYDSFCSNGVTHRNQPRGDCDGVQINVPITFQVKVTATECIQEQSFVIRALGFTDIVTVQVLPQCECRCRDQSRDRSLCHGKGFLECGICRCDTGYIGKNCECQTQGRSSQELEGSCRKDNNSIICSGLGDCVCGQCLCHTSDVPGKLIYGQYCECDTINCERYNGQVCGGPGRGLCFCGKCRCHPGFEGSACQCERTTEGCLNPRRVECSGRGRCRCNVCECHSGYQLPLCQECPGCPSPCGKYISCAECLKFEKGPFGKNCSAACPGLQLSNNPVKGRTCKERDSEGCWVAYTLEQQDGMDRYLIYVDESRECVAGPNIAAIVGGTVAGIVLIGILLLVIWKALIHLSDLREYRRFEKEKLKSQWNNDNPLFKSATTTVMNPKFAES
T1 sequence (P13612 34-1032): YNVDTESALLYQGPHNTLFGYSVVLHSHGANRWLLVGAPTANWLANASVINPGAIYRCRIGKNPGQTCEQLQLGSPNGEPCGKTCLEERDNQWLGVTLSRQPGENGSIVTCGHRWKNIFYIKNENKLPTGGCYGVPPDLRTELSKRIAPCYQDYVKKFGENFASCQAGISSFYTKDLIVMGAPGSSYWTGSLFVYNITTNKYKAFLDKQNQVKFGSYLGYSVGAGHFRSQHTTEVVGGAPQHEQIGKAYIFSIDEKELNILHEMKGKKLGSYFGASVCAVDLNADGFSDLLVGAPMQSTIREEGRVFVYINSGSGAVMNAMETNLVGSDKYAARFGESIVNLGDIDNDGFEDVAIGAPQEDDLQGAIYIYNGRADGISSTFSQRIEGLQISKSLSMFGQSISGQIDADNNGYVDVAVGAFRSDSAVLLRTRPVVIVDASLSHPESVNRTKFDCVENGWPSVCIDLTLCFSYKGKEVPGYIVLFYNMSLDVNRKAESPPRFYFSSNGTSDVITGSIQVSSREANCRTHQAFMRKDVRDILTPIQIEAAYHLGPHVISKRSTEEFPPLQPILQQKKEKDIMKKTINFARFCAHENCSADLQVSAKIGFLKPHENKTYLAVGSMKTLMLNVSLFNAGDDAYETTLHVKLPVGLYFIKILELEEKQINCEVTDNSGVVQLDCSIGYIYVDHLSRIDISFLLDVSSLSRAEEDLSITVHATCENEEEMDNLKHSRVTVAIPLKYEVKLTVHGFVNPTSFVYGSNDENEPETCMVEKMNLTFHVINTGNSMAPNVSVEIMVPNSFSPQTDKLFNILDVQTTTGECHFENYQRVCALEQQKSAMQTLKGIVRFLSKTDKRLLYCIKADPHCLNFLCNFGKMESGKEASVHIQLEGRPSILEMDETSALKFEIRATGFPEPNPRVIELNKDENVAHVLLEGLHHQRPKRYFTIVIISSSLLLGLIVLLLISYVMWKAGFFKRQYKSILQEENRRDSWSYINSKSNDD
T1 sequence (P05556 21-798): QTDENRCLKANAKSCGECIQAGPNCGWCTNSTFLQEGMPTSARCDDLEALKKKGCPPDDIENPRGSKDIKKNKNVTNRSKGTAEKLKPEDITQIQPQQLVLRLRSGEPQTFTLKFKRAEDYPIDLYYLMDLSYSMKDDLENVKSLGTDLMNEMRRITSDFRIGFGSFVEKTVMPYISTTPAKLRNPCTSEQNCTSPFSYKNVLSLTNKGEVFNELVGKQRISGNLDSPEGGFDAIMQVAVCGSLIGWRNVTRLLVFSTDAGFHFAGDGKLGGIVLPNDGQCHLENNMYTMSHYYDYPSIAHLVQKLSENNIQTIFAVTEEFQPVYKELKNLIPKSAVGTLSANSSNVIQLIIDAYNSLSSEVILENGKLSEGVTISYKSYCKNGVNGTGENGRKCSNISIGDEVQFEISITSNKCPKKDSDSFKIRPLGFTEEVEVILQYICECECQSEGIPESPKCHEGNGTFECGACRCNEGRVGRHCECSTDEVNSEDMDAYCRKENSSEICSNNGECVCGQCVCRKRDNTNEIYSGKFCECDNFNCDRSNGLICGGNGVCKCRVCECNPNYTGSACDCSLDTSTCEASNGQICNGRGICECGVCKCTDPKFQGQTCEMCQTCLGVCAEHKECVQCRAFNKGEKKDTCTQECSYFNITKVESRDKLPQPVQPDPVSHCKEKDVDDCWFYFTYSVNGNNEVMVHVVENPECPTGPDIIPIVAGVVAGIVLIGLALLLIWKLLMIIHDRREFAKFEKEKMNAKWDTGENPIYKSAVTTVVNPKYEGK

By EC50 is commonly meant the midpoint of the concentration-response curve. As to `CCCC[C@@H](COC(=O)N(Cc1cccs1)Cc1cccs1)NC(=O)N[C@@H](CC(=O)OC)c1ccc2c(c1)OCO2` [Compound C1, (6S,10S)-methyl 10-(1,3-benzodioxol-5-yl)-6-butyl-3,8-dioxo-1-(2-thienyl)-2-(2-thienylmethyl)-4-oxa-2,7,9-triazadodecan-12-oate], the EC50 on α4β1 (VLA-4) amounted to 32 µM; on αLβ2 (LFA-1), 26 µM.

Consider `COc1cccc(CN(Cc2cccc(OC)c2)C(=O)CCCCC(=O)N(Cc2cccc(OC)c2)Cc2cccc(OC)c2)c1` [Compound C3, N^1,N^1,N^6,N^6-tetrakis(3-methoxybenzyl)adipamide], for which the EC50 came to 11 µM at α4β1 (VLA-4) and 7 µM on αLβ2 (LFA-1).

With `O=C(OCCOCCOCCOC(=O)N(Cc1cccs1)Cc1cccs1)N(Cc1cccs1)Cc1cccs1` [Compound C4, (ethane-1,2-diylbis(oxy))bis(ethane-2,1-diyl) bis(bis(thiophen-2-ylmethyl)carbamate)], in the assay on B16-BL6 melanoma, the “Long term tumor free survival on addition to GVAX/anti-CTLA-4 (in words)” value was “significant increase” and the “Median survival benefit on addition to GVAX/anti-CTLA-4 (in words)” value is “significant median survival benefit”. Besides, in the assay on K562 tumor target cells (different effector to target ratios, C4 100 μM (FIG. 2)), the “Killing (specific lysis) of K562 tumor target cells by NK-92 cell line” value is listed as “enhanced”. Also, the “Killing of K562 tumor target cells by freshly isolated CD56+ NK cells” value in the assay on K562 tumor target cells (human NK cells from healthy volunteer, 4 h, with or without C4 (FIG. 1)) is recorded as “enhanced”. Further, the EC50 on α4β1 (VLA-4) was 14 µM. Also, the “SDF-1α mediated migration of Jurkat T cells across ICAM-1 coated membranes” value in the assay on Jurkat (a4-) cells is reported as “enhancing”. Further, the EC50 at αLβ2 (LFA-1) was 11 µM. Also, the “SDF-1α mediated migration of Jurkat T cells across VCAM-1 coated membranes” value with Jurkat cells is “enhancing”.

As to `COc1ccc(CN(Cc2ccc(OC)cc2)C(=O)CCCCC(=O)N(Cc2ccc(OC)cc2)Cc2ccc(OC)cc2)cc1` [Compound C2, N^1,N^1,N^6,N^6-tetrakis(4-methoxybenzyl)adipamide], the EC50 at α4β1 (VLA-4) and at αLβ2 (LFA-1) was 11 µM each time.

The record behind these values is US10342866B2, “Compositions and methods for immunotherapies comprising small molecule integrin receptor-ligand agonist adjuvants” (7 Hills Interests LLC, priority 2015, dated 2019).
